Source: patent US8153773B2, “Synthesis and use of anti-reverse phosphorothioate analogs of the messenger RNA cap” (Board of Supervisors of Louisiana State University and …, priority 2007, dated 2012)
Entries after “also recorded” stand apart in the source; their conditions may differ.

Columns and labels:
murine eIF4E (28-217) = target: T1, murine eIF4E (28-217) (Mus musculus, UniProt P63073); experiment: Binding affinities for eIF4E by fluorescence quenching; design: Cap - eIF4E KAS: unit not given here; conditions: for ΔG°: binding free energy calculated from KAS; for ΔG° / KAS: murine eIF4E (28-217); for Cap - eIF4E KAS / KAS: equilibrium association constant; for Cap - eIF4E KAS: mouse eIF4E (amino acids 28-217), 20° C.; for KAS: fluorescence quenching; for affinity for eIF4E (KAS) relative to m2^7,2′-OGpppG: fold higher than the parent ARCA; for affinity for eIF4E (KAS) of D1 relative to D2 diastereomer: fold higher than the D2 member
T1 construct: (28-217) to phosphorothioate cap analogs, as determined
Method: Binding affinities of S analogs for murine eIF4E were determined by fluorescence quenching. Fluorescence titration measurements were carried out on an LS-50B spectrofluorometer (Perkin Elmer Co.) in 50 mM HEPES/KOH (pH 7.2), 100 mM KCl, 0.5 mM EDTA, 1 mM DTT at 20.0±0.2° C. Aliquots of 1 μl increasing concentration of cap analogue solutions were added to 1.4 ml of […] solutions. Fluorescence intensities (excitation at 280 nm with 2.5 nm bandwidth and detection at 337 nm with 4 nm bandwidth and 290 nm cut-off filter) were corrected taking into account sample dilution and the inner filter effect. Equilibrium association constants (KAS) were determined by fitting the theoretical dependence of the fluorescence intensity on the total concentration of cap analogue to the experimental data points according to equation described previously (See A. Niedzwiecka et al., “Biophysical studies of eIF4E cap-binding protein: recognition of mRNA 5′ cap structure and synthetic fragments of eIF4G and 4E-BP1 proteins,” J. Mol. Biol., vol. 319, pp. 615-635 (2002)). The concentration of protein was fitted as a free parameter of equilibrium equation showing amount of “active” protein. The final KAS was calculated as a weighted average of three to ten independent titrations, with the weights taken as the reciprocals of the numerical standard deviations squared. Numerical nonlinear least-squares regression analysis was performed using ORGIN 6.0 (Microcal Software Inc., USA). The Gibbs free energy of binding was calculated from the KAS value according to the standard equation ΔG°=−RTlnKAS.

hDcp2 = hDcp2 (Homo sapiens, UniProt Q8IU60); experiment: In vitro RNA decapping assay with recombinant hDcp2; format: biochemical; conditions: for hydrolysis of capped oligonucleotide by hDcp2: capped 32P-labeled short RNA, recombinant hDcp2, anion exchange HPLC (FIG. 6); for Dcp2 susceptibility: radioactivity in pGp* as a percentage of total cap radioactivity, capped oligonucleotides digested with hDcp2
Method: Dcp2 activity was measured with capped 48-nt oligonucleotides as substrates, a truncated form of luciferase mRNA (48 nucleotides). GST-hDcp2 was expressed in Escherichia coli and purified as described by Z. Wang et al., “The hDcp2 protein is a mammalian mRNA decapping enzyme,” Proc. Natl. Acad. Sci. U.S.A., vol. 99, pp. 12663-12668 (2002). Capped oligonucleotides were first subjected to digestion with GST-hDcp2 at 37° C. for 2 h in decapping buffer (10 mM Tris-HCl, pH 7.5, 100 mM potassium acetate, 2 mM magnesium acetate, 0.5 mM MnCl2, 2 mM dithiothreitol, and 0.1 mM spermine). See C. Piccirillo et al., “Functional characterization of the mammalian mRNA decapping enzyme hDcp2,” RNA, vol. 9, pp. 1138-1147 (2003). The reaction mixture was then extracted once with an equal volume of phenol and twice with chloroform, and RNA was precipitated with ethanol. Products of the decapping reaction were further digested with a cocktail of ribonucleases (RiboShredder; Epicentre) at 37° C. for 1 h. The products were resolved by anion-exchange HPLC on a 4.6×250-mm Partisil 10SAX/25 column (Whatman). The gradient consisted of water for 1 min, a linear gradient to 112 mM KH2PO4, pH 4.5, for 20 min, a linear gradient of 112-450 mM KH2PO4 for 15 min, a linear gradient of 450 mM to 1.5 M KH2PO4 for 15 min, and isocratic elution at 1.5 M of KH2PO4 for 9 min, all at a flow rate 1 ml/min.
We tested oligonucleotides capped with either of S-ARCAs for hydrolysis by recombinant hDcp2 to test whether mRNA capped with the various diastereomers of m2^7,2′-OGpppsG and m2^7,2′-OGppspG would differ in their sensitivity to cleavage by Dcp1/Dcp2. See generally Z. Wang et al., “The hDcp2 protein is a mammalian mRNA decapping enzyme,” Proc. Natl. Acad. Sci. U.S.A., vol. 99, pp. 12663-12668 (2002), and Z. Wang et al., “An mRNA Stability Complex Functions with Poly(A)-Binding Protein To Stabilize mRNA In Vitro”, Mol. Cell. Biol., vol. 19, pp. 4552-4560 (1999). Cap analogs used were initially unlabeled, so to follow the products of the digestion reaction we synthesized capped oligonucleotides in the presence of [α-^32P]GTP and a DNA template in which G was the first ribonucleotide specified after the promoter. The oligonucleotides capped with either of the S-ARCAs were subjected to Dcp2 digestion in vitro, after which the products were further digested with a cocktail of ribonucleases (RiboShredder from Epicenter). Any nucleotide on the 5′ side of a G residue acquired a ^32P-labeled 3′-phosphate group after ribonuclease digestion by nearest-neighbor transfer. Anion exchange chromatography was then used to resolve the labeled 3′-nucleoside monophosphates (3′-NMP*), at internal positions in the RNA, from labeled 5′-terminal products (FIG. 6). The latter comprise p3 Gp* derived from uncapped transcripts and m2^7,2′-OGp3 Gp* (when m2^7,2′-OGp3G was used), or pGp* resulting from capped RNA resistant or nonresistant to enzymatic cleavage, respectively. All cap analogs used were ARCAs, which ensured that they were incorporated into RNA exclusively in the correct orientation. This further guaranteed that only one 5′-terminal product (m2^7,2′-OGp3 Gp*) was observed upon ribonuclease treatment. Uncapped RNA is not a substrate for Dcp2, which explains why p3 Gp* product was observed after Dcp2 digestion.
See E. Grudzien et al., “Differential inhibition of mRNA degradation pathways by novel cap analogs,” J. Biol. Chem., vol. 281, pp. 1857-1867 (2006).

T1 sequence (P63073 28-217): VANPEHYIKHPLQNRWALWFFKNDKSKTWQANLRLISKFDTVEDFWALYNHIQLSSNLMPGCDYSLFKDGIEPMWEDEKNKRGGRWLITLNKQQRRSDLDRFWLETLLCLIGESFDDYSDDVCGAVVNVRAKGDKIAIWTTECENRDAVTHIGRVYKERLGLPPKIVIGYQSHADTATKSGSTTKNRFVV

Compound | ΔG° (murine eIF4E (28-217)) [kcal/mol] | Cap - eIF4E KAS (murine eIF4E (28-217)) | KAS (murine eIF4E (28-217)) [µM⁻¹] | hydrolysis of capped oligonucleotide by hDcp2 (hDcp2) | Dcp2 susceptibility (hDcp2) [%] | affinity for eIF4E (KAS) relative to m2^7,2′-OGpppG (murine eIF4E (28-217)) [fold] | affinity for eIF4E (KAS) of D1 relative to D2 diastereomer (murine eIF4E (28-217)) [fold]
CO[C@@H]1[C@H](O)[C@@H](COP(=O)(O)OP(=O)([O-])OP(=O)(O)OC[C@H]2O[C@@H](n3cnc4c(=O)[nH]c(N)nc43)[C@H](O)[C@@H]2O)O[C@H]1n1c[n+](C)c2c(O)nc(N)nc21 [m2^7,2′-OGpppG, reference compound] | -9.43 | 10.8 ± 0.3 | 10.8 ± 0.3 | completely digested | 100 | – | –
m2^7,2′-OGpppsG (D1) [Compound 4a] | -9.76 | 34.3 ± 1.3 | 19.2 ± 0.8 | – | 96 | 3 | –
m2^7,2′-OGpppsG (D2) [Compound 4b] | -9.62 | 12.9 ± 0.9 | 15.0 ± 0.6 | – | 98 | – | –
m2^7,2′-OGppspG (D1) [Compound 5a] | -10.23 ± 0.02 | 42.1 ± 1.6 | 43.1 ± 1.4 | much more susceptible to Dcp2 than its D2 counterpart | 71 | – | 2
m2^7,2′-OGppspG (D2) [Compound 5b] | -9.77 | 18.3 ± 3.4 | 19.3 ± 2.2 | stabilized RNA against hDcp2 hydrolysis; also recorded: resistant to hDcp2 hydrolysis | 6 | – | –
m2^7,2′-OGpsppG (D1) [Compound 6a] | -10.12 | 19.3 ± 1.8 | 35.2 ± 1.1 | – | 84 | 3 | 3
m2^7,2′-OGpsppG (D2) [Compound 6b] | -9.53 | 15.4 ± 0.5 | 12.9 ± 0.4 | – | 91 | – | –
